The values below come from US8809232B2, “Herbicidal compositions comprising 4-amino-3-chloro-5-fluoro-6-(4-chloro-2-fluoro-3-methoxyphenyl) pyridine-2-carboxylic acid or a derivative thereof and halosulfuron, pyrazosulfuron and esprocarb” (Dow Agrosciences LLC, priority 2012, dated 2014).

Structures are written as SMILES.

In one test the test system is ECHCO. Put plainly: Post-emergence foliar-applied herbicidal mixtures, greenhouse, direct seeded rice weeds. It counts as in vivo, Echinochloa colona (L.) Link. The following applies: 105 g ai/ha. The source says:
(§1) Seeds or nutlets of the desired test plant species were planted in a soil matrix prepared by mixing a loam or sandy loam soil (e.g., 28.6 percent silt, 18.8 percent clay, and 52.6 percent sand, with a pH of about 5.8 and an organic matter content of about 1.8 percent) and calcareous grit in an 80 to 20 ratio. The soil matrix was contained in plastic pots with a volume of 1 quart and a surface area of 83.6 square centimeters (cm^2). When required to ensure good germination and healthy plants, a fungicide treatment and/or other chemical or physical treatment was applied. The plants were grown for 8-22 days in a greenhouse with an approximate 14 hr photoperiod which was maintained at about 29° C. during the day and 26° C. during the night. Nutrients (Peters Excel® 15-5-15 5-Ca 2-Mg and iron chelate) were applied in the irrigation solution as needed and water was added on a regular basis. Supplemental lighting was provided with overhead metal halide 1000-Watt lamps as necessary. The plants were employed for testing when they reached the first through fourth true leaf stage. […]
(§2) Treatment requirements were calculated based upon the rates being tested, the concentration of active ingredient or acid equivalent in the formulation, and a 12 mL application volume at a rate of 187 L/ha.
(§3) For treatments comprised of formulated compounds, measured amounts of compounds were placed individually in 25 mL glass vials and diluted in a volume of 1.25% (v/v) Agri-Dex® crop oil concentrated to obtain 12× stock solutions. […]
(§4) For treatments comprised of formulated and technical compounds, weighed amounts of the technical materials were placed individually in 25 mL glass vials and dissolved in a volume of 97:3 v/v acetone/DMSO to obtain 12× stock solutions, and measured amounts of the formulated compounds were placed individually in 25 mL glass vials and diluted in a volume of 1.5% (v/v) crop oil concentrate or water to obtain 12× stock solutions. […]

In a further test the test system is CYPRO. Put plainly: In-water applied herbicidal mixtures, greenhouse, transplanted paddy rice weeds. It counts as in vivo, Cyperus rotundus L. On the procedure:
(§5) Weed seeds or nutlets of the desired test plant species were planted in puddled soil (mud) prepared by mixing a shredded, non-sterilized mineral soil (50.5 percent silt, 25.5 percent clay, and 24 percent sand, with a pH of about 7.6 and an organic matter content of about 2.9 percent) and water at a 1:1 volumetric ratio. The prepared mud was dispensed in 365 mL aliquots into 16-ounce (oz.) non-perforated plastic pots with a surface area of 86.59 square centimeters (cm^2) leaving a headspace of 3 centimeters (cm) in each pot Mud was allowed to dry overnight prior to planting or transplanting. Rice seeds were planted in Sun Gro MetroMix® 306 planting mixture, which typically has a pH of 6.0 to 6.8 and an organic matter content of about 30 percent, in plastic plug trays. Seedlings at the second or third leaf stage of growth were transplanted into 840 mL of mud contained in 32-oz. non-perforated plastic pots with a surface area of 86.59 cm^2 4 days prior to herbicide application. The paddy was created by filling the headspace of the pots with 2.5 to 3 cm of water. When required to ensure good germination and healthy plants, a fungicide treatment and/or other chemical or physical treatment was applied. The plants were grown for 4-22 days in a greenhouse with an approximate 14 hr photoperiod which was maintained at about 29′C during the day and 26° C. during the night. Nutrients were added as Osmocote® (19:6:12, N:P:K^+ minor nutrients) at 2 g per 16-oz. pot and 4 g per 32-oz. pot. Water was added on a regular basis to maintain the paddy flood, and supplemental lighting was provided with overhead metal halide 1000-Watt lamps as necessary. The plants were employed for testing when they reached the first through fourth true leaf stage.
(§6) Treatments consisted of the acid or esters of 4-amino-3-chloro-5-fluoro-6-(4-chloro-2-fluoro-3-methoxy-phenyl)pyridine-2-carboxylic acid (compound A) each formulated as an SC (suspension concentrate) and various herbicidal components alone and in combination. Forms of compound A were applied on an acid equivalent basis.
(§7) Other herbicidal components were applied on an active ingredient basis and included acetolactate synthase (ALS)-inhibiting herbicides formulated as Permit® 75 WDG, pyrazosulfuron-ethyl formulated as Agreen® WG or Sirius® G, and VLCFA inhibiting herbicide esprocarb (technical grade material).
(§8) Treatment requirements for each compound or herbicidal component were calculated based upon the rates being tested, the concentration of active ingredient or acid equivalent in the formulation, an application volume of 2 mL per component per pot, and an application area of 86.59 cm^2 per pot.
(§9) For formulated compounds, a measured amount was placed in an individual 100 or 200 mL glass vial and was dissolved in a volume of 1.25% (v/v) Agri-Dex® crop oil concentrate to obtain application solutions.
(§10) For technical grade compounds, a weighed amount was placed in an individual 100 to 200 mL glass vial and was dissolved in a volume of acetone to obtain concentrated stock solutions. […] The concentrated stock solutions obtained were diluted with an equivalent volume of an aqueous mixture containing 2.5% (v/v) crop oil concentrate so that the final application solutions contained 1.25% (v/v) crop oil concentrate.
(§11) Applications were made by injecting with a pipetter appropriate amounts of the application solutions, individually and sequentially, into the aqueous layer of the paddy. Control plants were treated in the same manner with the solvent blank. Applications were made so that all treated plant material received the same concentrations of acetone and crop oil concentrate.
(§12) The treated plants and control plants were placed in a greenhouse as described above and water was added as needed to maintain a paddy flood. […]

Test [1] has as its system SCPJU. The description is as above. The format is in vivo, Schoenoplectus juncoides (Roxb.) Palla. On the procedure: as §5
Treatments consisted of the acid or esters of 4-amino-3-chloro-5-fluoro-6-(4-chloro-2-fluoro-3-methoxy-phenyl)pyridine-2-carboxylic acid (compound A) each formulated as an SC (suspension concentrate) and various herbicidal components alone and in combination. Forms of compound A were applied on an acid equivalent basis. […]
as §8
(§13) For formulated compounds, a measured amount was placed in an individual 100 or 200 mL glass vial and was dissolved in a volume of 1.25% (v/v) Agri-Dex® crop oil concentrate to obtain application solutions. […]

In another test the test system is FIMMI. The description is as above. It counts as in vivo, Fimbristylis miliacea (L.) Vahl. How it is done:
as §5, §6, §7, §8, §9, §10
Applications were made by injecting with a pipetter appropriate amounts of the application solutions, individually and sequentially, into the aqueous layer of the paddy. […]

The subject of test [2] is SCPJU. Put plainly: Post-emergence foliar-applied herbicidal mixtures, greenhouse, direct seeded rice weeds. It counts as in vivo, Schoenoplectus juncoides (Roxb.) Palla.
From the text: as §1, §2, §3, §4

In a further test the test system is CYPIR. The description is as above. It counts as in vivo, Cyperus iria L.
From the text: (§14) Seeds or nutlets of the desired test plant species were planted in a soil matrix prepared by mixing a loam or sandy loam soil (e.g., 28.6 percent silt, 18.8 percent clay, and 52.6 percent sand, with a pH of about 5.8 and an organic matter content of about 1.8 percent) and calcareous grit in an 80 to 20 ratio. The soil matrix was contained in plastic pots with a volume of 1 quart and a surface area of 83.6 square centimeters (cm^2). When required to ensure good germination and healthy plants, a fungicide treatment and/or other chemical or physical treatment was applied. The plants were grown for 8-22 days in a greenhouse with an approximate 14 hr photoperiod which was maintained at about 29° C. during the day and 26° C. during the night. Nutrients (Peters Excel® 15-5-15 5-Ca 2-Mg and iron chelate) were applied in the irrigation solution as needed and water was added on a regular basis. Supplemental lighting was provided with overhead metal halide 1000-Watt lamps as necessary. The plants were employed for testing when they reached the first through fourth true leaf stage.
(§15) Treatments consisted of the acid or esters of 4-amino-3-chloro-5-fluoro-6-(4-chloro-2-fluoro-3-methoxy-phenyl)pyridine-2-carboxylic acid (Compound A), each formulated as an SC (suspension concentrate), and various herbicidal components alone and in combination. Forms of compound A were applied on an acid equivalent basis.
(§16) Other herbicidal components were applied on an active ingredient basis and included the acetolactate synthase (ALS)-inhibiting herbicides halosulfuron-methyl formulated as Permit® 75 WDG, pyrazosulfuron-ethyl formulated as Agreen® WG or Sirius® G, and the VLCFA inhibiting herbicide esprocarb (technical grade material).
as §2, §3, §4

For a further test, the system named is BRAPP. Described as above. The format is in vivo.
From the text: as §14, §15, §16, §2
(§17) For treatments comprised of formulated compounds, measured amounts of compounds were placed individually in 25 mL glass vials and diluted in a volume of 1.25% (v/v) Agri-Dex® crop oil concentrated to obtain 12× stock solutions. […] Application solutions were prepared by adding an appropriate amount of each stock solution (e.g., 1 mL) and diluted to the appropriate final concentrations with the addition of 10 mL of an aqueous mixture of 1.25% (v/v) crop oil concentrate so that the final spray solutions contained 1.25+/−0.05% (v/v) crop oil concentrate.
(§18) For treatments comprised of technical compounds, weighed amounts can be placed individually in 25 mL glass vials and dissolved in a volume of 97:3 v/v acetone/DMSO to obtain 12× stock solutions. […] Application solutions can be prepared by adding an appropriate amount of each stock solution (e.g., 1 mL) and diluted to the appropriate final concentrations with the addition of 10 mL of an aqueous mixture of 1.5% (v/v) crop oil concentrate so that the final spray solutions contain 1.25% (v/v) crop oil concentrate. When technical materials are used, the concentrated stock solutions can be added to the spray solutions so that the final acetone and DMSO concentrations of the application solutions are 16.2% and 0.5%, respectively.
(§19) For treatments comprised of formulated and technical compounds, weighed amounts of the technical materials were placed individually in 25 mL glass vials and dissolved in a volume of 97:3 v/v acetone/DMSO to obtain 12× stock solutions, and measured amounts of the formulated compounds were placed individually in 25 mL glass vials and diluted in a volume of 1.5% (v/v) crop oil concentrate or water to obtain 12× stock solutions. […] Application solutions were prepared by adding an appropriate amount of each stock solution (e.g., 1 mL) and diluted to the appropriate final concentrations with the addition of an appropriate amount of an aqueous mixture of 1.5% (v/v) crop oil concentrate so that the final spray solutions contained 1.25% (v/v) crop oil concentrate. […]

A further test has as its system ECHOR. Description: In-water applied herbicidal mixtures, greenhouse, transplanted paddy rice weeds. It counts as in vivo, Echinochloa oryzoides (Ard.) Fritsch. How it is done: as §5, §6, §7, §8, §9, §10, §11, §12
A further test relates to ECHCG. The test is described as above. Particulars: 17.5 g ai/ha. The format is in vivo, Echinochloa crus-galli (L.) Beauv. On the procedure:
as §5, with “Water was added on a regular basis to maintain the paddy flood, and supplemental lighting was provided with overhead metal halide 1000-Watt lamps as necessary. The plants were employed for testing when they reached the first through fourth true leaf stage.” left out
as §8, §13

The test system of a further test is SCPMA. The test is described as above. The following applies: 35 g ai/ha. It counts as in vivo. On the procedure: as §5, §6, §7, §8, §9, §10, §11, §12
For another test, the system named is DIGSA. Description: Post-emergence foliar-applied herbicidal mixtures, greenhouse, direct seeded rice weeds. The format is in vivo, Digitaria sanguinalis (L.) Scop. Particulars: 35 g ai/ha.
From the text: as §14, §15, §16, §2, §17, §18, §19

The test system of a further test is LEFCH. Described as above. It counts as in vivo, Leptochloa chinensis (L.) Nees.
From the text: as §14, §15, §16, §2, §17, §18, §19

For `CCN(C(=O)SCc1ccccc1)C(C)C(C)C` (stereo not drawn) [Esprocarb, S-(phenylmethyl) N-(1,2-dimethylpropyl)-N-ethylcarbamothioate], the “Visual Weed Control (%) - 22 DAA ECHCO Obs” value in the test on ECHCO is 0%. The “Visual Weed Control (%) - 21 DAA CYPRO Obs” value with CYPRO (105 g ai/ha) turned out to be 0%; in the test with CYPRO (210 g ai/ha), 50%. The “Visual Weed Control (%) - 21 DAA SCPJU Obs” value in the test with SCPJU [1] (105 g ai/ha) and with SCPJU [1] (210 g ai/ha) was 0% throughout. Further, the “Visual Weed Control (%) - 21 DAA FIMMI Obs” value with FIMMI (105 g ai/ha) and in the test on FIMMI (210 g ai/ha) was 0% in each case. For the same molecule, the “Visual Weed Control (%) - 22 DAA SCPJU Obs” value with SCPJU [2] (52.5 g ai/ha) and in the test on SCPJU [2] (105 g ai/ha) was 0% throughout. Further, the “Visual Weed Control (%) - 22 DAA CYPIR Obs” value in the test on CYPIR (52.5 g ai/ha) and in the test on CYPIR (105 g ai/ha) was 0% each time. Moreover, the “Visual Weed Control (%) - 22 DAA BRAPP Obs” value in the test on BRAPP (52.5 g ai/ha) and in the test on BRAPP (105 g ai/ha) was 0% in each case.
On to `COC(=O)c1c(Cl)nn(C)c1S(=O)(=O)NC(=O)Nc1nc(OC)cc(OC)n1` [Halosulfuron-methyl, methyl 3-chloro-5-[[[[(4,6-dimethoxy-2-pyrimidinyl)amino]carbonyl]amino]sulfonyl]-1-methyl-1H-pyrazole-4-carboxylate, reference compound], for which the “Visual Weed Control (%) - 21 DAA ECHOR Obs” value in the test on ECHOR (8.75 g ai/ha) and with ECHOR (17.5 g ai/ha) was 0% throughout. Further, in the test with ECHOR (35 g ai/ha), the “Visual Weed Control (%) - 20 DAA ECHOR Obs” value came out at 0%. For the same molecule, in the test on ECHCG, the “Visual Weed Control (%) - 21 DAA ECHCG Obs” value is given as 0%. Besides, the results for the “Visual Weed Control (%) - 21 DAA CYPRO Obs” value in the test with CYPRO (8.75 g ai/ha) and in the test on CYPRO (17.5 g ai/ha) were 60% and 100%, respectively. Besides, in the test on SCPMA, the “Visual Weed Control (%) - 20 DAA SCPMA Obs” value is listed as 65%. Besides, the “Visual Weed Control (%) - 20 DAA DIGSA Obs” value in the test on DIGSA was 10%. Also, the “Visual Weed Control (%) - 20 DAA BRAPP Obs” value in the test on BRAPP (4.38 g ai/ha), with BRAPP (8.75 g ai/ha) and in the test on BRAPP (17.5 g ai/ha) was 0% throughout. Moreover, the “Visual Weed Control (%) - 20 DAA LEFCH Obs” value came to 0% in the test with LEFCH (8.75 g ai/ha), 0% in the test with LEFCH (17.5 g ai/ha) and 5% in the test on LEFCH (35 g ai/ha).
